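96-well plates; 48 h exposure; 5 concentrations. Endpoints by linear interpolation between flanking doses. Not reached: highest tested concentration assigned. Abbreviation: GI50, concentration required for 50% inhibition of growth.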 Activity calls are given as the source filed them. No stated cut-off is given here; in the data, active = GI50 up to about 1.1 µM and inactive = higher.

The text below walks through data of ChEMBL document CHEMBL1201862, “PubChem BioAssay data set” (2004).

Some test systems named below: SN12C; SNB-75; SF-539; COLO 205; EKVX; SK-MEL-5; NCI-H226; SW-620; HCT-15; MCF7; HT-29; HCC 2998; IGROV-1; UACC-62; NCI/ADR-RES; M14; OVCAR-3; OVCAR-4; MDA-MB-435.
Test in all cases: growth of human tumour cells (NCI), 48 h

Consider `CN1CCN(CCCCN2c3ccccc3Sc3ccc(N=[N+]=[N-])cc32)CC1`, for which the GI50 was 12.2 µM (inactive) in the assay on SN12C; 4.55 µM (inactive) in the assay on SNB-75; 7.35 µM (inactive) with SF-539; 1.86 µM (inactive) in the assay on COLO 205; 13.6 µM (inactive) in the assay on EKVX; 2.26 µM (inactive) in the assay on SK-MEL-5. Further, the GI50 with NCI-H226 was 14.3 µM (inactive); in the assay on SW-620 it was 2.68 µM (inactive); with HCT-15, 7.36 µM; in the assay on MCF7, 4.17 µM (inactive); with HT-29 it was 2.07 µM (inactive); in the assay with HCC 2998 it was 3.74 µM (inactive). In addition, the GI50 in the assay with IGROV-1 was 7.91 µM (inactive); in the assay on UACC-62 it was 2.08 µM (inactive); in the assay on NCI/ADR-RES, 11.7 µM (inactive); in the assay with M14, 2.05 µM (inactive); in the assay on OVCAR-3, 8.07 µM (inactive); in the assay on OVCAR-4, 10.2 µM (inactive). Moreover, the GI50 with MDA-MB-435 was 2.07 µM (inactive).
Turning to `CC1=NN(c2nc(N)nc(CCl)n2)C(C)(C)C1`, the GI50 in the assay on SN12C is 30.3 µM (inactive); in the assay with SNB-75, 24.3 µM (inactive); with SF-539, 18.9 µM (inactive); with COLO 205 it was 22.9 µM (inactive); in the assay on EKVX it was 12.9 µM (inactive); with SK-MEL-5, 19.8 µM (inactive). The GI50 in the assay on NCI-H226 is 38.1 µM (inactive); in the assay on SW-620 it was 25.6 µM (inactive); in the assay with HCT-15, 21 µM; in the assay on MCF7, 45 µM (inactive); in the assay with HT-29, 29.9 µM (inactive); in the assay on HCC 2998 it was 27.1 µM (inactive). Besides, the GI50 in the assay on IGROV-1 is 4.41 µM (inactive); with UACC-62 it was 14.8 µM (inactive); in the assay with NCI/ADR-RES it was 14.4 µM (inactive); in the assay on M14, 30.7 µM (inactive); in the assay on OVCAR-3, 14.1 µM (inactive); with OVCAR-4, 8.63 µM (inactive). Also, the GI50 in the assay on MDA-MB-435 was 34.8 µM (inactive).
With `Cc1occc1C(=S)Nc1ccc(Cl)c(C(=O)OC(C)C2CC2)c1` (centres undefined), the GI50 with SN12C is 18 µM (inactive); in the assay with SNB-75 it was 20.4 µM (inactive); in the assay with SF-539, 22.3 µM (inactive); in the assay on COLO 205, 20.1 µM (inactive); in the assay on EKVX it was 19.1 µM (inactive); in the assay with SK-MEL-5, 15.3 µM (inactive). The GI50 in the assay on NCI-H226 is 15.5 µM (inactive); in the assay with SW-620 it was 35.8 µM (inactive); in the assay with HCT-15, 18.5 µM; in the assay on MCF7 it was 26 µM (inactive); in the assay on HT-29, 20.6 µM (inactive); with HCC 2998, 20.3 µM (inactive). Besides, the GI50 in the assay with IGROV-1 was 16 µM (inactive); with UACC-62 it was 22.8 µM (inactive); in the assay with NCI/ADR-RES, 19.3 µM (inactive); with M14, 24.9 µM (inactive); in the assay on OVCAR-3, 16.6 µM (inactive); in the assay on OVCAR-4, 15.3 µM (inactive). The GI50 in the assay with MDA-MB-435 is 24.8 µM (inactive).
For `O=C(Nc1ccc(Cl)c(Cl)c1)N1N=C2c3ccccc3CCC2C1c1ccc(Cl)cc1` (centres undefined), the GI50 with SN12C, in the assay on SNB-75, in the assay with SF-539, with COLO 205, in the assay on EKVX and in the assay on SK-MEL-5 was > 100 µM (inactive) in each case. The GI50 is > 100 µM (inactive) in the assay on NCI-H226; > 100 µM (inactive) in the assay with SW-620; greater than 100 µM with HCT-15; > 100 µM (inactive) with MCF7; > 100 µM (inactive) with HT-29; > 100 µM (inactive) in the assay with HCC 2998. The GI50 in the assay on IGROV-1 was 3.01 µM (inactive); in the assay with UACC-62, > 100 µM (inactive); with NCI/ADR-RES, > 100 µM (inactive); in the assay with M14, > 100 µM (inactive); with OVCAR-3 it was > 100 µM (inactive); in the assay on OVCAR-4, > 100 µM (inactive). Also, the GI50 with MDA-MB-435 was > 100 µM (inactive).
In the case of `Nc1ncnc2c1ncn2CCCNO`, the GI50 in the assay with SN12C, with SNB-75, in the assay with SF-539, in the assay with COLO 205, in the assay on EKVX and in the assay with SK-MEL-5 was > 100 µM (inactive) each time. Further, the GI50 in the assay with NCI-H226 is > 100 µM (inactive); in the assay with SW-620, > 100 µM (inactive); with HCT-15 it was greater than 100 µM; with MCF7, > 100 µM (inactive); in the assay on HT-29, > 100 µM (inactive); with HCC 2998, > 100 µM (inactive). Also, the GI50 in the assay on IGROV-1, in the assay with UACC-62, in the assay on NCI/ADR-RES, in the assay with M14, with OVCAR-3 and in the assay on OVCAR-4 was > 100 µM (inactive) in each case. Besides, the GI50 in the assay with MDA-MB-435 was > 100 µM (inactive).
As for `COc1cccc(/C=C\c2ccnc3ccccc23)c1`, the GI50 in the assay on SN12C, in the assay with SNB-75, with SF-539, in the assay on COLO 205, with EKVX and with SK-MEL-5 was > 10 µM (inactive) throughout. Further, the GI50 in the assay with NCI-H226 was > 10 µM (inactive); with SW-620 it was > 10 µM (inactive); with HCT-15 it was greater than 10 µM; in the assay with MCF7, > 10 µM (inactive); in the assay on HT-29, > 10 µM (inactive); in the assay on HCC 2998, > 10 µM (inactive). The GI50 in the assay on IGROV-1, with UACC-62, in the assay on NCI/ADR-RES, in the assay on M14, in the assay with OVCAR-3 and in the assay on OVCAR-4 was > 10 µM (inactive) each time. In addition, the GI50 with MDA-MB-435 is > 10 µM (inactive).
For the compound `Oc1[nH]c(Nc2ccc(F)c(Cl)c2)nc2ncnc1-2`, the GI50 with SN12C was > 100 µM (inactive); in the assay on SNB-75, 25.9 µM (inactive); in the assay with SF-539, > 100 µM (inactive); in the assay with COLO 205 it was > 100 µM (inactive); in the assay with EKVX, > 100 µM (inactive); in the assay with SK-MEL-5 it was > 100 µM (inactive). Moreover, the GI50 is > 100 µM (inactive) with NCI-H226; > 100 µM (inactive) in the assay with SW-620; greater than 100 µM in the assay with HCT-15; > 100 µM (inactive) with MCF7; > 100 µM (inactive) with HT-29; > 100 µM (inactive) in the assay on HCC 2998. Also, the GI50 in the assay with IGROV-1, in the assay with UACC-62, in the assay on NCI/ADR-RES, in the assay with M14, in the assay with OVCAR-3 and in the assay with OVCAR-4 was > 100 µM (inactive) each time. The GI50 in the assay on MDA-MB-435 is > 100 µM (inactive).
`Cn1c(=O)n2c(=O)n(C)c(=O)n2c1=O`: the GI50 with SN12C, in the assay with SNB-75, in the assay on SF-539, in the assay with COLO 205, with EKVX and with SK-MEL-5 was > 100 µM (inactive) each time. Further, the GI50 with NCI-H226 is > 100 µM (inactive); with SW-620, > 100 µM (inactive); with HCT-15, greater than 100 µM; with MCF7, > 100 µM (inactive); in the assay with HT-29, > 100 µM (inactive); with HCC 2998, > 100 µM (inactive). Besides, the GI50 in the assay with IGROV-1, with UACC-62, in the assay on NCI/ADR-RES, in the assay with M14, in the assay with OVCAR-3 and in the assay on OVCAR-4 was > 100 µM (inactive) throughout. Also, in the assay on MDA-MB-435, the GI50 was > 100 µM (inactive).
For the compound `CN(C)CCCSc1nc2c(c(=N)n1-c1ccccc1)c(=S)n(-c1ccccc1)c(=S)n2-c1ccccc1`, the GI50 in the assay with SN12C is 1.74 µM (inactive); with SNB-75, 1.63 µM (inactive); with SF-539, 2.52 µM (inactive); in the assay on COLO 205 it was 1.9 µM (inactive); with EKVX, 1.91 µM (inactive); in the assay with SK-MEL-5 it was 1.91 µM (inactive). Moreover, the GI50 in the assay with NCI-H226 was 4.74 µM (inactive); in the assay with SW-620, 1.79 µM (inactive); in the assay on HCT-15, 1.61 µM; in the assay with MCF7 it was 0.383 µM (active); in the assay with HT-29, 2.17 µM (inactive); in the assay with HCC 2998, 1.45 µM (inactive). Moreover, the GI50 was 1.83 µM (inactive) in the assay on IGROV-1; 1.78 µM (inactive) in the assay on UACC-62; 2.59 µM (inactive) in the assay with NCI/ADR-RES; 1.78 µM (inactive) in the assay with M14; 1.75 µM (inactive) with OVCAR-3; 1.79 µM (inactive) in the assay on OVCAR-4. The GI50 with MDA-MB-435 is 1.72 µM (inactive).
Regarding `Cc1c(O)oc2ccccc2c1=O`, the GI50 in the assay with SN12C, in the assay with SNB-75, with SF-539, with COLO 205, with EKVX and in the assay with SK-MEL-5 was > 100 µM (inactive) throughout. Also, the GI50 with NCI-H226 was > 100 µM (inactive); in the assay on SW-620, > 100 µM (inactive); in the assay on HCT-15 it was greater than 100 µM; with MCF7, > 100 µM (inactive); in the assay with HT-29, > 100 µM (inactive); in the assay on HCC 2998, > 100 µM (inactive). The GI50 in the assay on IGROV-1, with UACC-62, in the assay on NCI/ADR-RES, in the assay on M14, in the assay with OVCAR-3 and with OVCAR-4 was > 100 µM (inactive) in each case. Further, the GI50 with MDA-MB-435 was > 100 µM (inactive).
For the compound `COc1ccccc1Nc1nc(N)nc(N)c1N`, the GI50 with SN12C was 17.5 µM (inactive); in the assay with SNB-75, > 100 µM (inactive); in the assay on SF-539 it was 50.6 µM (inactive); with COLO 205, 48.2 µM (inactive); in the assay on EKVX it was > 100 µM (inactive); in the assay with SK-MEL-5, 54.1 µM (inactive). Besides, the GI50 in the assay on NCI-H226 is > 100 µM (inactive); with SW-620, 27.2 µM (inactive); with HCT-15, 62.1 µM; in the assay with MCF7, 29.2 µM (inactive); in the assay on HT-29 it was 45.4 µM (inactive); with HCC 2998 it was > 100 µM (inactive). Also, the GI50 with IGROV-1 is 72.6 µM (inactive); in the assay on UACC-62, 57.5 µM (inactive); in the assay on NCI/ADR-RES, > 100 µM (inactive); in the assay on M14, > 100 µM (inactive); in the assay on OVCAR-3, 43.9 µM (inactive); in the assay on OVCAR-4, > 100 µM (inactive). Moreover, the GI50 with MDA-MB-435 was 27.5 µM (inactive).
